US20250032581A1, “COMPOSITIONS AND ARTICLES COMPRISING AN ADNF POLYPEPTIDE” (RAMOT AT TEL-AVIV UNIVERSITY LTD., priority 2021, published 2025)

How the values were obtained:
Type in all cases: cell-based, mouse
[1] = test system: differentiated N1E-115 cells expressing RFP-tagged EB3; test: Live imaging of EB3 comet-like structures (MT dynamics); conditions: 10^−12M, 4 hrs, vs. non-treated control; no significant differences between NAP and SKIP
From the text: Plasmid construction—Protein expressing plasmids were constructed as previously described based on pEGFP-C1 backbone and express full-length ADNP or the following truncated ADNP proteins: p.Glu830synfs*83, p.Lys408Valfs*31, p.Ser404* (as before). Inserts of cDNA carrying unique mutations were obtained from mRNA extracted from patient-derived lymphoblastoid cell lines and cDNA with full-length human ADNP was obtained from a control lymphoblastoid cell line with no mutation. Protein expressions were verified by fluorescent imaging and immunoblotting analysis as before.
(§1) Cell culture—Mouse neuroblastoma NIE-115 cells were maintained in Dulbecco's modified Eagle's medium, 10% fetal bovine serum, 2 mM glutamine and 100 U ml-1 penicillin, 100 mg ml-1 streptomycin (Biological Industries, Beit Haemek, Israel). The cells were incubated in 9 5% air/5% CO2 in a humidified incubator at 37° C.
(§2) Cell differentiation and co-transfection of overexpression plasmids—Cultured NIE-115 cells were plated on 35 mm dishes (81156, 60 p-Dish, Ibidi, Martinsried, Germany) at a concentration of 1.25×10^4 cells per dish and then were differentiated with reduced fetal bovine serum (2%) and DMSO (1.25%) containing medium for 5 days before transfection. 48 hrs before experiments N1E-115 cells were co-transfected with 1 μg EB3-RFP or mCherry-Tau (3R) plasmid with or without 2 μg of plasmids, coding to GFP conjugated to full-length human ADNP, or ADNP carried mutations. 1:3 ratios between total amount of transfected DNA and transfection reagent were used according to manufacture guidance (Lipofectamine2000, Thermo Fisher Scientific, Waltham, MA, USA) in all subsequent experiments.
Live Imaging—48 hrs after transfection, differentiated NIE-115 cells (expressing EB3-RFP with or without GFP-conjugated to full-length ADNP or mutated ADNP) were incubated at 37° C. with a 5% CO2/95% air mixture in a thermostatic chamber placed on the stage of a Leica TCS SP5 confocal microscope (objective 100× (PL Apo) oil immersion, NA 1.4). Time-lapse images were automatically captured 3 sec during 1 min, using the Leica LAS AF software. After imaging all samples were also treated with NAP (SEQ ID NO: 2) or SKIP (SEQ ID NO: 21) in final concentrations of 10^−12M, and after 4 hrs time-lapse imaging was done again under the same conditions. Data was collected and analyzed by Imaris software.
To evaluate the effect of ADNP truncated proteins on MT dynamics time-lapse imaging of EB3 comet-like structures formed by RFP-tagged EB3 proteins that bind to MT plus-ends was performed. Two parameters of EB3 activity were used to assess MT dynamics—track length and track speed of EB3 comets, which reflect the length of freshly growing MTs and the speed of MT assembly, respectively. Furthermore, the present inventors aimed to determine whether NAP ([…] for 4 hrs) could prevent the deleterious effect of ADNP mutations.

[2] = test system: Tau-MT interaction in differentiated N1E-115 cells; test: Fluorescence recovery after photobleaching (FRAP) of mCherry-Tau; conditions: zinc 400 μM, 1 h; peptide 10^−12M
Experimental: as §1, §2
Fluorescence recovery after photobleaching (FRAP)—Differentiated NIE-115 cells were transfected with mCherry-Tau with or without GFP-conjugated to full-length ADNP or mutated ADNP, and imaged 48 hrs after transfection. An ROI for photobleaching was drowned in the proximal cell branches. mCherry-Tau was bleached with a […], and fluorescence recovery was collected within wavelengths of 610-650 nm. 80 images were taken every 0.74 sec immediately after bleaching. After FRAP imaging all samples were also treated with NAP in final concentrations of 10^−12M, and after 4 hrs time-lapse imaging was done again under the same conditions. FRAP imaging for assessment difference between NAP and SKIP (SEQ ID NO: 21) activity was performed after an hour of ZnCl2 treatment (400 μM final concentration; Sigma, Rehovot, Israel) with or without NAP/SKIP (10^−12M final concentration). Fluorescence signals were quantified with Fiji, obtained data were normalized with easyFRAP [82, 83] and FRAP recovery curves were fitted by a one-phase exponential association function by GraphPad Prism6 (GraphPad Software, Inc., La Jolla, CA, USA) while samples with R^2<0.9 were excluded.
Next, the effect of full-length/truncated ADNP forms with or without NAP treatment on Tau-MT interaction was examined by fluorescence recovery after photobleaching (FRAP) (FIGS. 8A-C). FRAP was performed with mCherry-tagged Tau protein (FIG. 8A). […] Therefore, the immobile mCherry-Tau fraction reflects the rate of Tau association with MTs.

Tau, tubulin = test: Polymerized vs. soluble tubulin assay; conditions: zinc 400 μM, 4 h, peptide 10^−12M
Experimental: Polymerized vs. soluble tubulin assay—To quantify tubulin polymerization and Tau-MT association, a simple assay was performed as previously described. The cells grown to confluence in six-well plates were washed with MT buffer (80 mM PIPES pH 6.8, 1 mM MgCl^2, 2 mM EGTA, 5% Glycerol) and lysed at room temperature for 5 min through centrifugation (300 g), with 150 μl of MT buffer with 0.5% Triton X-100 to extract soluble (cytosolic) tubulin (S). The pelleted cells were rinsed once again with an equal volume of modified RIPA lysis buffer (50 mM Tris-HCL pH 7.4, 150 mM NaCl, 2 mM EGTA, 1% Triton X-100, 0. 1% SDS, 0.1% sodium Deoxycholate) to collect the polymerized (cytoskeletal) tubulin (P). The cytosolic and cytoskeletal fractions were each mixed with sample buffer and heated at 95° C. for 5 min. An equal volume of each fraction was analyzed by immunoblotting with Tau, tubulin and actin antibodies, and the results following ECL development were quantified by densitometry (GelQuant.NET software provided by biochemlabsolutions(dot)com).
It is known that in the presence of extracellular zinc NAP protects MT against degradation by promoting Tau binding to the MT shaft. Polymerized vs. soluble tubulin assay was effected to compare protective activities of NAP and SKIP against MT degradation and Tau-MT dissociation (FIGS. 11F-G). After treatments with zinc (400 μM, 4 h) with and without NAP or SKIP (10^−12M, 4 h) the cellular-tubulin pool was separated into polymerized and soluble tubulin fractions. The amount of Tau, tubulin, and actin was identified by immunoblotting (FIG. 11F), followed by densitometric quantification (FIG. 11G).

Substance: SKIP
- EB3 track length and speed [1]: increased EB3 track length and speed
- Tau immobile fraction (Tau-MT interaction) in the presence of zinc [2]: prevented zinc adverse effect
- protection against Tau dissociation from MTs (soluble Tau ratio) (Tau, tubulin): only NAP exhibited protection against Tau dissociation from MTs
- protection of polymerized tubulin against zinc (Tau, tubulin): protected against zinc-induced decay
